Results as given in patent publication US20100076015A1, “Aminopyridine Derivatives” (VANTIA LIMITED, priority 2008, published 2010).

target: T1, Human KLK1 (Homo sapiens, UniProt P06870); assay: Determination of the IC50 for KLK1 (fluorogenic substrate H-DVal-Leu-Arg-AFC); format: biochemical; conditions: 37° C.
T1 construct: purchased Callbiochem (Calbiochem)
How it was run: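 Human KLK1 incubated at 37° C with fluorogenic substrate H-DVal-Leu-Arg-AFC and a range of test compound concentrations. Residual activity taken as initial reaction rate from absorbance change at 410 nm; IC50 derived from these rates.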

T1 sequence (P06870 25-262): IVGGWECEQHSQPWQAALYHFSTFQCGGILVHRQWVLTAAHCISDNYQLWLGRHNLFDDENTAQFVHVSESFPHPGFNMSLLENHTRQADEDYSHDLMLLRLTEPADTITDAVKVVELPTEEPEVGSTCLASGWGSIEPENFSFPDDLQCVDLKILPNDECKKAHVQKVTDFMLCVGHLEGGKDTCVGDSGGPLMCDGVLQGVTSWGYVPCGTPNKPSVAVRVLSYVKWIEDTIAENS

Compound	IC50 [nM]
CN(C)[C@@H](C(=O)N[C@@H](Cc1ccc(F)c(F)c1)C(=O)NCc1ccc(N)nc1)C(C)(C)C [Example 179, (R)—N-[(S)-1-[(6-Amino-pyridin-3-ylmethyl)-carbamoyl]-2-(3,4-difluoro-phenyl)-ethyl]-2-dimethylamino-3,3-dimethyl-butyramide]	3.01
CC(C)N1CCC[C@@H]1C(=O)N[C@@H](Cc1c[nH]c2ccccc12)C(=O)NCc1ccc(N)nc1 [Example 130, (R)-1-Isopropyl-pyrrolidine-2-carboxylic acid [(S)-1-[(6-amino-pyridin-3-ylmethyl)-carbamoyl]-2-(1H-indol-3-yl)-ethyl]-amide]	5
CCC(C)[C@H](C(=O)N[C@@H](Cc1ccc(F)cc1)C(=O)NCc1ccc(N)nc1)N(C)C (stereo partly drawn) [Example 182, (R)-2-Dimethylamino-3-methyl-pentanoic acid [(S)-1-[(6-amino-pyridin-3-ylmethyl)-carbamoyl]-2-(4-fluoro-phenyl)-ethyl]-amide]	21.2
COC(=O)CN1CCC[C@@H]1C(=O)N[C@@H](Cc1ccc(F)c(F)c1)C(=O)NCc1ccc(N)nc1 [Example 134, {(R)-2-[(S)-1-[(6-Amino-pyridin-3-ylmethyl)-carbamoyl]-2-(3,4-difluoro-phenyl)-ethylcarbamoyl]-pyrrolidin-1-yl}-acetic acid methyl ester]	13.5
Nc1ccc(CNC(=O)[C@H](CC2CCCC3CCCCC32)NC(=O)[C@H]2CCCN2)cn1 (stereo partly drawn) [Example 15, (R)-Pyrrolidine-2-carboxylic acid [(S)-1-[(6-amino-pyridin-3-ylmethyl)-carbamoyl]-2-(decahydro-naphthalen-1-yl)-ethyl]-amide]	1.2
CC(C)C[C@@H](N)C(=O)N[C@@H](CC1CCCC2CCCCC21)C(=O)NCc1ccc(N)nc1 (stereo partly drawn) [Example 16, (R)-2-Amino-4-methyl-pentanoic acid [(S)-1-[(6-amino-pyridin-3-ylmethyl)-carbamoyl]-2-(decahydro-naphthalen-1-yl)-ethyl]-amide]	1.1

The next lines start with the values.

IC50 [nM]	Compound
8.7	Nc1ccc(CNC(=O)[C@H](Cc2cccc(Cl)c2)NC(=O)c2cc3ccccc3[nH]2)cn1 [Example 313, 1H-Indole-2-carboxylic acid [(S)-1-[(6-amino-pyridin-3-ylmethyl)-carbamoyl]-2-(3-chloro-phenyl)-ethyl]-amide]
39	CS(=O)(=O)N1CCC[C@@H]1C(=O)N[C@@H](Cc1ccc(Cl)c(Cl)c1)C(=O)NCc1ccc(N)nc1 [Example 210, (R)-1-Methanesulfonyl-pyrrolidine-2-carboxylic acid [(S)-1-[(6-amino-pyridin-3-ylmethyl)-carbamoyl]-2-(3,4-dichloro-phenyl)-ethyl]-amide]
7.4	COc1ccc2[nH]c(C(=O)N[C@@H](Cc3cccc4ccccc34)C(=O)NCc3ccc(N)nc3)cc2c1 [Example 300, 5-Methoxy-1H-indole-2-carboxylic acid {(S)-1-[(6-amino-pyridin-3-ylmethyl)-carbamoyl]-2-naphthalen-1-yl-ethyl}-amide]
4.2	Cc1nc(N)ccc1CNC(=O)[C@@H](Cc1ccc(Cl)c(Cl)c1)NC(=O)[C@H]1CCCN1 [Example 189, (R)-Pyrrolidine-2-carboxylic acid [(R)-1-[(6-amino-2-methyl-pyridin-3-ylmethyl)-carbamoyl]-2-(3,4-dichloro-phenyl)-ethyl]-amide]
5.2	Cc1cc(C)c(C(=O)N[C@@H](Cc2ccc(F)c(F)c2)C(=O)NCc2ccc(N)nc2C)[nH]1 [Example 284, 3,5-Dimethyl-1H-pyrrole-2-carboxylic acid [(S)-1-[(6-amino-2-methyl-pyridin-3-ylmethyl)-carbamoyl]-2-(3,4-difluoro-phenyl)-ethyl]-amide]
10.9	CN[C@@H](Cc1ccccc1)C(=O)N[C@H](Cc1ccc(Cl)c(Cl)c1)C(=O)NCc1ccc(N)nc1C [Example 193, (S)—N-[(R)-1-[(6-Amino-2-methyl-pyridin-3-ylmethyl)-carbamoyl]-2-(3,4-dichloro-phenyl)-ethyl]-2-methylamino-3-phenyl-propionamide]
